Patent US20220380318A1, “SUBSTITUTED SULFONYL AMIDES FOR CONTROLLING ANIMAL PESTS” (Bayer Aktiengesellschaft, priority 2019, published 2022)

How the values were obtained:
Format in all cases: in vivo
Meloidogyne incognita [1] = experiment: Meloidogyne incognita test (MELGIN), comparison with prior art; settings: 504 h, after 21 days
Protocol: (§1) Meloidogyne incognita Test (MELGIN) Solvent: 7 parts by weight of dimethylformamide Emulsifier: 2.5 parts by weight of alkylaryl polyglycol ether To produce a suitable active ingredient formulation, 1 part by weight of active ingredient is mixed with the specified amounts of solvent and emulsifier, and the concentrate is diluted with water to the desired concentration, it being necessary to take account of the volume of soil which is drenched. It should be ensured that a concentration of 20 ppm of emulsifier in the soil is not exceeded. To produce further test concentrations, water is used for dilution. Pots filled with soil (loamy sand) are watered with the active ingredient solution. An egg/larvae suspension of the southern root-knot nematode (Meloidogyne incognita) is added, lettuce seeds are scattered over the surface of the soil, and they are covered over with quartz sand. The lettuce seeds germinate and the plants develop. The galls develop on the roots. After 21 days, the nematicidal efficacy in % is determined by the formation of galls. 100% means that no galls have been found; 0% means that the number of galls on the treated plants corresponds to the untreated control.

Meloidogyne incognita [2] = experiment: Meloidogyne incognita test (soil drench, gall formation after 21 days); settings: 504 h, lettuce, read-out: nematicidal efficacy in % (formation of galls); for pest or weed control at 0.25 ppm: application rate 0.25 ppm; for pest or weed control at 1 ppm: application rate 1 ppm; for pest or weed control at 0.125 ppm: application rate 0.125 ppm
Protocol: as §1, with “Test” for “Test (MELGIN)”

Meloidogyne incognita [3] = experiment: Meloidogyne incognita test (sand, acetone formulation, gall formation after 14 days); settings: 336 h, application rate 4 ppm, lettuce in sand, read-out: nematicidal efficacy in % (formation of galls)
Protocol: Meloidouyne incognita Test Solvent: 125.0 parts by weight of acetone To produce an appropriate active ingredient formulation, 1 part by weight of active ingredient is mixed with the stated amount of solvent and the concentrate is diluted to the desired concentration with water. Vessels are filled with sand, active ingredient solution, an egg/larvae suspension of the southern root-knot nematode (Meloidogyne incognita) and lettuce seeds. The lettuce seeds germinate and the plants develop. The galls develop on the roots. After 14 days, the nematicidal efficacy in % is determined by the formation of galls. 100% means that no galls were found; 0% means that the number of galls on the treated plants corresponds to the untreated control.

Heterodera pallida = Heterodera pallida - soil mixing test (HETDPA); settings: Globodera pallida, 1008 h, cysts on potato roots after six weeks, Abbott formula, read-out: % Efficacy
Protocol: Heterodera pallida-Soil Mixing Test ([…]) Solvent: 4 parts by weight of acetone Emulsifier: 1 part by weight of alkylaryl polyglycol ether To produce a suitable preparation of active ingredient, 1 part by weight of active ingredient is mixed with the stated amounts of solvent and emulsifier, and the concentrate is diluted with water to the desired concentration. This active ingredient formulation is mixed with soil (loamy sand). The stated concentration refers to the amount of active ingredient per volume unit of soil (ppm=mg/l). 40 cysts of the white potato nematode (Heterodera pallida, 250-275 larvae/cysts) are introduced into 500 ml of this active ingredient soil and mixed. The mixture is introduced into pots and planted in each case with a one-week-old potato seedling (Solanum tuberosum). After six weeks, the potato roots are checked for cysts and the average number per pot is calculated as efficacy by the Abbott formula: [formula] B=treated plants K=untreated control plants

SMILES	pest or weed control at 0.25 ppm (Meloidogyne incognita [2])	pest or weed control at 1 ppm (Meloidogyne incognita [2])	pest or weed control at 4 ppm (Meloidogyne incognita [3])	pest or weed control at 0.125 ppm (Meloidogyne incognita [2])	further results
CCOc1ccc(Cl)c(S(=O)(=O)NC(=O)c2nc(Cl)n([C@@H]3C[C@H]3C(F)(F)F)c2Cl)c1 [Ex. I-459, reference compound]					nematicidal efficacy (% gall reduction) at 0.03125 ppm (Meloidogyne incognita [1]): 10%
Cc1ccccc1S(=O)(=O)NC(=O)c1nc(Br)n([C@H]2C[C@@H]2C(F)(F)F)c1Br (racemic) [I-08]	100%	100%	100%		
COc1ccc(Cl)c(S(=O)(=O)NC(=O)c2nc(Br)n([C@H]3C[C@@H]3C(F)(F)F)c2Cl)c1 (racemic) [I-12]			100%	100%	nematicidal efficacy (% gall reduction) at 0.125 ppm (Meloidogyne incognita [1]): 100%
COc1ccc(Br)c(S(=O)(=O)NC(=O)c2nc(Cl)n([C@H]3C[C@@H]3C(F)(F)F)c2Br)c1 (racemic) [I-05]	100%	100%	100%	100%	
COc1ccc(Br)c(S(=O)(=O)NC(=O)c2nc(Cl)n([C@@H]3C[C@H]3C(F)(F)F)c2Cl)c1 [Ex. I-465, reference compound]					Emax at 0.03125 ppm (Meloidogyne incognita [1]; read-out: % Efficacy): 0%; Emax at 0.0625 ppm (Meloidogyne incognita [1]; 0.0625 ppm, read-out: % Efficacy): 25%; nematicidal efficacy (% gall reduction) at 0.125 ppm (Meloidogyne incognita [1]): 95%
COc1ccc(Cl)c(S(=O)(=O)NC(=O)c2nc(Cl)n([C@@H]3C[C@H]3C(F)(F)F)c2Cl)c1 [Ex. I-470, reference compound]					Emax at 0.015625 ppm (Meloidogyne incognita [1]; read-out: % Efficacy): 0%; nematicidal efficacy (% gall reduction) at 0.03125 ppm (Meloidogyne incognita [1]): 48%; Emax at 0.25 ppm (Heterodera pallida): 0%; Emax at 0.5 ppm (Heterodera pallida): 0%; Emax at 1 ppm (Heterodera pallida): 70%
O=C(NS(=O)(=O)c1ccccc1Cl)c1nc(Br)n([C@@H]2C[C@H]2C(F)(F)F)c1Cl (racemic) [I-13]		80%	100%		nematicidal efficacy (% gall reduction) at 0.5 ppm (Meloidogyne incognita [1]): 70%
O=C(NS(=O)(=O)c1cc(OCC(F)F)ccc1Cl)c1nc(Br)n([C@@H]2C[C@H]2C(F)(F)F)c1Br (racemic) [I-10]			100%	100%	
O=C(NS(=O)(=O)c1ccccc1Cl)c1nc(Br)n(CCC(F)(F)F)c1Cl [Ex. I-440, reference compound]					nematicidal efficacy (% gall reduction) at 0.125 ppm (Meloidogyne incognita [1]): 0%; nematicidal efficacy (% gall reduction) at 0.5 ppm (Meloidogyne incognita [1]): 0%
COc1ccc(Cl)c(S(=O)(=O)NC(=O)c2nc(Cl)n([C@H]3C[C@@H]3C(F)(F)F)c2Br)c1 (racemic) [I-01]	97%	100%	100%	90%	Emax at 0.015625 ppm (Meloidogyne incognita [1]; read-out: % Efficacy): 58.3%; nematicidal efficacy (% gall reduction) at 0.03125 ppm (Meloidogyne incognita [1]): 95%; Emax at 0.25 ppm (Heterodera pallida): 75%; Emax at 0.5 ppm (Heterodera pallida): 90%; Emax at 1 ppm (Heterodera pallida): 100%
O=C(NS(=O)(=O)c1cc(Cl)ccc1Cl)c1nc(Cl)n([C@H]2C[C@@H]2C(F)(F)F)c1Br (racemic) [I-02]	90%	100%	100%	90%	
Cc1ccccc1S(=O)(=O)NC(=O)c1nc(Cl)n([C@H]2C[C@@H]2C(F)(F)F)c1Br (racemic) [I-03]	100%	100%	100%	90%	
O=C(NS(=O)(=O)c1cc(OCC(F)F)ccc1Cl)c1nc(Cl)n([C@@H]2C[C@H]2C(F)(F)F)c1Br (racemic) [I-11]			100%	98%	
CCOc1ccc(Cl)c(S(=O)(=O)NC(=O)c2nc(Cl)n([C@H]3C[C@@H]3C(F)(F)F)c2Br)c1 (racemic) [I-04]	100%	100%	100%	90%	nematicidal efficacy (% gall reduction) at 0.03125 ppm (Meloidogyne incognita [1]): 97%
COc1ccc(Br)c(S(=O)(=O)NC(=O)c2nc(Br)n([C@H]3C[C@@H]3C(F)(F)F)c2Br)c1 (racemic) [I-07]	100%	100%	100%	100%	Emax at 0.03125 ppm (Meloidogyne incognita [1]; read-out: % Efficacy): 90%; nematicidal efficacy (% gall reduction) at 0.0625 ppm (Meloidogyne incognita [1]; 0.0625 ppm): 100%; nematicidal efficacy (% gall reduction) at 0.125 ppm (Meloidogyne incognita [1]): 100%
CCOc1ccc(Cl)c(S(=O)(=O)NC(=O)c2nc(Br)n([C@H]3C[C@@H]3C(F)(F)F)c2Br)c1 (racemic) [I-09]	100%	100%	100%	90%	
COc1ccc(Cl)c(S(=O)(=O)NC(=O)c2nc(Br)n([C@H]3C[C@@H]3C(F)(F)F)c2Br)c1 (racemic) [I-06]	100%	100%	100%	100%	Emax at 0.015625 ppm (Meloidogyne incognita [1]; read-out: % Efficacy): 65%; nematicidal efficacy (% gall reduction) at 0.03125 ppm (Meloidogyne incognita [1]): 92.5%
